Data taken from US8933096B2, “Antimicrobial agents” (Rugers, The State University of New Jersey, priority 2010, dated 2015).

How the values were obtained:
[1] = test system: MRSA; assay: Test C: planktonic antibacterial broth microdilution assay (MIC) vs MRSA; assay type: cell-based; conditions: Staphylococcus aureus, 37° C., growth read after 24 to 48 hours at OD 600 nm
Procedure: (§1) Test C. Planktonic (Free-Living) Antibacterial Assay.
(§2) Planktonic antibacterial activity can be determined using a broth microdilution assay in which log-phase bacteria are grown at 37° C. in appropriate medium containing two-fold serial dilutions of a compound to yield a final concentration ranging from 256 to 0.1 μg/ml. For determination of minimal inhibitory concentration (MIC) values, bacterial growth is monitored after 24 to 48 hours by measuring optical density at 600 nm.

[2] = test system: methicillin-Sensitive Staphylococcus aureus (MSSA); assay: Test C: planktonic antibacterial broth microdilution assay (MIC) vs MSSA; assay type: cell-based; conditions: 37° C., growth read after 24 to 48 hours at OD 600 nm
Procedure: as §1, §2

[3] = target: T1, S. aureus FtsZ GTPase (Staphylococcus aureus, UniProt P0A031); assay: Test B: FtsZ GTPase inhibition, colorimetric malachite green assay; assay type: biochemical; conditions: 1 mM GTP, 20 mM CaCl2, 2 μM FtsZ, 60 minutes at room temperature, read-out: IC50 (compound concentration at which FtsZ GTPase activity is inhibited by 50%)
T1 sequence (P0A031 1-390): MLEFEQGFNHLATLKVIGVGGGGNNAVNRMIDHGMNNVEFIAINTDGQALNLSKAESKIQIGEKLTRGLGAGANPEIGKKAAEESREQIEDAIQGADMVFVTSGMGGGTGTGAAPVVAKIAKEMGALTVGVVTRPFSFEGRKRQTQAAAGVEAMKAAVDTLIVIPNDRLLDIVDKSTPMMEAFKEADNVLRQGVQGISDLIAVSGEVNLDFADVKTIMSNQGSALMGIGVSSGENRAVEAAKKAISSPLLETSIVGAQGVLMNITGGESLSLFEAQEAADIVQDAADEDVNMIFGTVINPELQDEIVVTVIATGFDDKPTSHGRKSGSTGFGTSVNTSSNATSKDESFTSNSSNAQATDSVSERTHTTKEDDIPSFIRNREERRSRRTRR
Text: Test B. Determining the FtsZ GTPase Inhibitory Activities of Compounds of the Invention.
Compound-induced inhibition of the FtsZ GTPase activity can be tested using a colorimetric assay in which the inorganic phosphate (Pi) released upon FtsZ-catalyzed hydrolysis of GTP reacts with malachite green and molybdate under acidic conditions to form a ternary complex that absorbs light at 650 nm, thus enabling quantitation of Pi levels by recording the absorbance at 650 nm (A650). All reactions are conducted in triplicate in 96-well microtiter plates. Differing concentrations (ranging from 0 to 1.5 mM) of compound are combined with 1 mM GTP and 20 mM CaCl2, the latter being used because FtsZ GTPase activity requires the presence of Ca2+ ions. The reactions will be initiated by addition of 2 μM FtsZ and allowed to incubate for 60 minutes at room temperature. Following incubation, the reactions will be stopped by adding 80 μl of an acidic malachite green-molybdate solution containing 0.3 mg/ml malachite green oxalate, 2 mg/ml sodium molybdate, 0.5 mg/ml Triton X-100, and 0.7 N HCl. […] Ten minutes following addition of the acidic malachite green-molybdate solution, the A650 value for each reaction are recorded using a microtiter plate reader. […] This standard curve is then fit by linear regression analysis to yield the quantitative relationship between A650 and Pi concentration. […]

Row | SMILES | MIC [1] [µg/mL] | MIC [2] [µg/mL] | IC50 [3] [µM]
1 | COc1cc(-c2cc3cc(OC)c(OC)c(OC)c3c(C)[n+]2C)cc(-c2cccc(-c3ccc(F)cc3)c2)c1OC.[I-] [Example 15] | ≤ 8 | ≤ 8 | 
2 | COc1cc(-c2cc3ccccc3c[n+]2C)cc(-c2cccc(-c3ccc(F)cc3)c2)c1OC.[I-] [Example 22] |  | ≤ 8 | < 100
3 | COc1cc2cc(-c3cccc(-c4ccccc4)c3)nc(NCCN)c2cc1OC [Example 9] |  | ≤ 8 | 
4 | COc1cc2cc(-c3cc(-c4ccccc4)cc(-c4ccccc4)c3)nc(N=C(N)N)c2cc1OC [Example 3] |  | ≤ 32 | 
5 | COc1cc(-c2cc3cc(OC)c(OC)c(OC)c3c(C)[n+]2C)cc(-c2cc(-c3ccc(F)cc3)cc(-c3ccc(F)cc3)c2)c1OC.[I-] [Example 19] | ≤ 8 | ≤ 8 | < 100

More lines, now with the values ahead:

Row | MIC [1] [µg/mL] | MIC [2] [µg/mL] | IC50 [3] [µM] | SMILES
6 | ≤ 8 | ≤ 8 |  | COc1cc2cc(-c3cccc(C(C)(C)C)c3)nc(CN=C(N)N)c2cc1OC [Example 13]
7 |  | ≤ 8 |  | COc1cc2cc(-c3cccc(C(C)(C)C)c3)nc(C/N=C(/C)N)c2cc1OC [Example 23]
8 |  | ≤ 8 |  | COc1cc2cc(-c3cccc(-c4ccccc4)c3)[n+](C)c(N(C)C)c2cc1OC.[I-] [Example 5]
9 |  | ≤ 8 |  | COc1cc2cc(-c3cccc(-c4ccccc4)c3)nc(N=C(N)N)c2cc1OC [Example 7]
